Literature values as cited in patent US20060111442A1, “Use of methyl pyruvate to increase cellular energy production downstream of glycolysis for the PARP-1 ablation of HIV without necrotic cell death caused by continuous, chronic PARP-1 activation through the concomitant depletion of ATP and NAD” (priority 2004, published 2006).

Legend:
PDK4 [1] = conditions: feeding
[2] = test system: hepatic stellate cells (HSC); conditions: 10 microm 15dPGJ(2); 0.1 approximately 10 microm BRL49653; WY14643 >100 microm, not <10 microm
PDK4 [3] = conditions: control and high-fat-fed rats
mGPDH-deficient islets = conditions: both NADH shuttles halted
[4] = test system: guinea-pig cerebral cortical synaptosomes
Na(+)-K(+)-ATPase = conditions: 10 microM
[5] = 1 mmol.kg-1.d-1, 7 d; P<0.01

In the case of Cc1cccc(Nc2cc(Cl)nc(SCC(=O)O)n2)c1C [WY14643], the “pyruvate dehydrogenase kinase activity, PDK4 protein, PDK4 mRNA in gastrocnemius muscle” value (PDK4 [1]) is given as “induced large increases”, the “HSC DNA and collagen synthesis” value [2] is given as “inhibited” and the “hepatic PDK4 protein” value (PDK4 [3]) is given as “significantly increased PDK4 protein”.
For NOCC(=O)O [amino-oxyacetic acid], the glucose-induced insulin secretion (mGPDH-deficient islets) is given as “almost completely abrogated” and the “negative shift in the cytosolic NAD+/NADH redox potential” value [4] is given as 26 mV.
For C[C@@H]1O[C@@H](O[C@H]2C[C@@H](O)[C@]3(CO)[C@H]4[C@H](O)C[C@]5(C)[C@@H](C6=CC(=O)OC6)CC[C@]5(O)[C@@H]4CC[C@]3(O)C2)[C@H](O)[C@H](O)[C@H]1O [ouabain], the “glycolysis and lactate production” value (Na(+)-K(+)-ATPase) is listed as “decreased glycolysis and lactate production”.
For CCO[C@@H](Cc1ccc(OCCc2ccc(OS(C)(=O)=O)cc2)cc1)C(=O)O [tesaglitazar], the “insulin sensitivity (glucose infusion rate during hyperinsulinemic-euglycemic clamp)” value [5] is given as “improved the insulin sensitivity”.
